Data set [1] deals with dd-strain male mice. Description: Acute toxicity test (minimum lethal dose, oral). Type of data set: in vivo. Conditions: oral administration, three mice per group, mortality seven days after administration. As for the experimental part:
Test compounds were orally administered to groups of dd-strain male mice weighing 20 ± 1 g, each group consisting of three mice. Seven days after the administration, minimum lethal dose (MLD) of each compound was determined by observing the mortality.

Data set [2] has as its target T1, A₂ receptor (Rattus norvegicus, UniProt P30543).
T1 construct: from tissue; host or cells: rat corpus striatum membrane preparation
Description: Adenosine A₂ receptor binding test (³H-CGS 21680 binding). Conditions: [^3H]CGS 21680 was used, rat corpus striatum, read-out: A2 Receptor Inhibition (%); for inhibition at 1 µM: 10^-6M; for inhibition at 0.1 µM: 10^-7M. The procedure: The similar procedure as in the above-described adenosine A₁ receptor binding test was repeated using rat corpus striatum to obtain the final precipitate of the tissue thereof. The precipitate was suspended in 50 mM Tris HCl buffer containing 10 mM magnesium chloride and 0.02 unit/mg tissue of adenosine deaminase (manufactured by Sigma Co.) to give a tissue concentration of 5 mg (wet weight)/ml.
The similar procedure as above was repeated to determine the radioactivity bound to the A₂ receptors using 50 µl of CGS 21680 labeled with tritium [³H-2-[p-(2-carboxyethyl)-phenethylamino]-5'-(N-ethylcarboxamide)adenosine: 40 Ci/mmol, manufactured by New England Nuclear Co. (J. Pharmacol. Exp. Ther., 251, 888 (1989)] (final concentration: 4.0 nM) in place of 50 µl of the mixture of N-ethylcarboxamidoadenosine labeled with tritium (³H-NECA: 26 Ci/mmol, manufactured by Amersham Co.) (final concentration: 3.8 nM) and cyclopentyladenosine (CPA, manufactured by Sigma Co.) (final concentration: 50 nM).
The inhibition rate of the test compound against the binding of A₂ receptors (³H-CGS 21680 binding) was calculated by the following equation: [formula] [Notes] • 1. "B" means the amount of radioactivity of ³H-CGS 21680 bound in the presence of a test compound at a concentration shown in Table 4. • 2. "T" means the amount of radioactivity of ³H-CGS 21680 bound in the absence of a test compound. • 3. "N" means the amount of radioactivity of ³H-CGS 21680 bound in the presence of 100 µM CPA.

In data set [3] the test system is Haloperidol-Induced Catalepsy. The data set can be described thus: Effect on haloperidol-induced catalepsy. Type of data set: in vivo, mice. Conditions: 10 mg/kg orally; for Number of the Animals Showing Remission: of five mice, catalepsy score not more than 4 points; for Remission Rate (%): rate of decrease in total score based on control group; for Total Score: total catalepsy score of five mice (25 points at the full), haloperidol 1.0 mg/kg i.p. The procedure: Haloperidol (Janssen Pharmaceutica) suspended in 0.3% CMC was intraperitoneally administered to each mouse at a dose of 1.0 mg/kg. Test compounds were suspended in 0.3% CMC or in injectable distilled water (Otsuka Pharmaceutical Co., Ltd.) containing Tween 80. L-DOPA (Kyowa Hakko Kogyo Co., Ltd.) and benserazide hydrochloride (Kyowa Hakko Kogyo Co., Ltd.) were suspended in 0.3% CMC. One hour after the haloperidol administration, the test compound suspensions and the control suspension [injectable distilled water (Otsuka Pharmaceutical Co., Ltd.) containing Tween 80] containing no test compound were orally administered to separate groups of the mice (0.1 ml per 10 g of body weight). One hour after the administration of the test compound, the forelimbs of each mouse and subsequently the hindlimbs of the same mouse were placed on a 4.5 cm-high, 1.0 cm-wide bar and catalepsy was estimated. […] The catalepsy score and the standard of judgment are shown below. […] The number of the animals showing remission against catalepsy is the number of the mice for which the catalepsy score was not more than 4 points. […] The ED₅₀ values were calculated by Probit analysis.

The text below walks through data of EP0590919A1, “Therapeutic agents for parkinson's disease” (KYOWA HAKKO KOGYO CO., LTD., priority 1992, dated 1994).

The structures appear in SMILES notation.

As usually defined, the inhibition is the drop in the measured response relative to a control, in per cent.

T1 sequence (P30543 whole entry): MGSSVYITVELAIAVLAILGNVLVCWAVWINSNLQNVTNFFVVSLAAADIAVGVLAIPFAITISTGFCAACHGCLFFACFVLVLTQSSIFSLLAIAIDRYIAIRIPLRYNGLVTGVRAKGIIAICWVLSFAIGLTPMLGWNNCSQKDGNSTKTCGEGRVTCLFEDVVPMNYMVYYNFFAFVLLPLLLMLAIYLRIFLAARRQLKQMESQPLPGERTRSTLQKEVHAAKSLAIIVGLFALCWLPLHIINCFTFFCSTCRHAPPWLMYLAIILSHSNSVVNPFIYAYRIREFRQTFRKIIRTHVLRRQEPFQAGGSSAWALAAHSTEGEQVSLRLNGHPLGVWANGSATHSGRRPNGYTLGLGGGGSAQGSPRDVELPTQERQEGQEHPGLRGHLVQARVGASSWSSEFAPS

`CCn1c(=O)c2c(nc(/C=C/c3cccc(OC)c3)n2C)n(CC)c1=O` [Compound 40, (E)-1,3-Diethyl-8-(3-methoxystyryl)-7-methylxanthine]: the MLD in data set [1] is recorded as over 300 mg/kg. In data set [2], the inhibition at 1 µM was determined as 98% and the inhibition at 0.1 µM worked out at 88%. For the same compound, in data set [3], the “Number of the Animals Showing Remission” value is listed as 5, the “Remission Rate (%)” value amounted to 88% and the “Total Score” value is 3.

In turn, `CCn1c(=O)c2c(nc(/C=C/c3ccc(C)cc3)n2C)n(CC)c1=O` [Compound 44, (E)-1,3-Diethyl-7-methyl-8-(4-methylstyryl)xanthine] gave an MLD in data set [1] of over 100 mg/kg. Also, in data set [2], the inhibition at 1 µM amounted to 103% and the inhibition at 0.1 µM was determined as 64%. Besides, in data set [3], the “Number of the Animals Showing Remission” value is listed as 3, the “Remission Rate (%)” value is 32% and the “Total Score” value is on record as 17.

On to `CCn1c(=O)c2c(nc(/C=C/c3cccc(OC)c3[N+](=O)[O-])n2C)n(CC)c1=O` [Compound 64, (E)-1,3-Diethyl-8-(3-methoxy-2-nitrostyryl)-7-methylxanthine], for which the MLD in data set [1] is on record as over 100 mg/kg. In data set [2], the inhibition at 1 µM was 94% and the inhibition at 0.1 µM is 89%. In addition, in data set [3], the “Number of the Animals Showing Remission” value came to 4, the “Remission Rate (%)” value stood at 36% and the “Total Score” value was 16.

`CCn1c(=O)c2c(nc(/C=C/c3ccc(Br)cc3)n2C)n(CC)c1=O` [Compound 78, (E)-8-(4-Bromostyryl)-1,3-diethyl-7-methylxanthine] returned an MLD in data set [1] of over 100 mg/kg. Also, in data set [2], the inhibition at 1 µM amounted to 89% and the inhibition at 0.1 µM stood at 68%. In data set [3], the “Number of the Animals Showing Remission” value is 3, the “Remission Rate (%)” value amounted to 28% and the “Total Score” value stood at 18.

`CCn1c(=O)c2c(nc(/C=C/c3ccc(OCOC)cc3)n2C)n(CC)c1=O` [Compound 82, (E)-1,3-Diethyl-8-(4-methoxymethoxystyryl)-7-methylxanthine] had an MLD in data set [1] of over 100 mg/kg. Further, in data set [2], the inhibition at 1 µM turned out to be 98% and the inhibition at 0.1 µM is 86%. Moreover, in data set [3], the “Number of the Animals Showing Remission” value turned out to be 5, the “Remission Rate (%)” value is 64% and the “Total Score” value was 9.

In data set [1], `CCn1c(=O)c2c(nc(/C=C/c3ccc(F)cc3)n2C)n(CC)c1=O` [Compound 84, (E)-1,3-Diethyl-8-(4-fluorostyryl)-7-methylxanthine] displayed an MLD of over 100 mg/kg. For the same compound, in data set [2], the inhibition at 1 µM stood at 100% and the inhibition at 0.1 µM turned out to be 82%. Besides, in data set [3], the “Number of the Animals Showing Remission” value was determined as 4, the “Remission Rate (%)” value is reported as 32% and the “Total Score” value is listed as 17.

`CCn1c(=O)c2c(nc(/C=C/c3cc(C(F)(F)F)cc(C(F)(F)F)c3)n2C)n(CC)c1=O` [Compound 86, (E)-8-[3,5-Bis(trifluoromethyl)styryl]-1,3-diethyl-7-methylxanthine] had an MLD in data set [1] of over 100 mg/kg. Also, in data set [2], the inhibition at 1 µM was determined as 73% and the inhibition at 0.1 µM was determined as 29%. Further, in data set [3], the “Number of the Animals Showing Remission” value came out at 3, the “Remission Rate (%)” value was 36% and the “Total Score” value was determined as 16.

The compound `CCn1c(=O)c2c(nc(/C=C/c3cccc([N+](=O)[O-])c3)n2C)n(CC)c1=O` [Compound 90, (E)-1,3-Diethyl-7-methyl-8-(3-nitrostyryl)xanthine] registered an MLD in data set [1] of over 100 mg/kg. In data set [2], the inhibition at 1 µM was 94% and the inhibition at 0.1 µM is 85%. In data set [3], the “Number of the Animals Showing Remission” value came to 4, the “Remission Rate (%)” value is listed as 44% and the “Total Score” value is 14.

Compound `CCn1c(=O)c2c(nc(/C=C/c3cccc(Br)c3)n2C)n(CC)c1=O` [Compound 92, (E)-8-(3-Bromostyryl)-1,3-diethyl-7-methylxanthine] gave an MLD in data set [1] of over 100 mg/kg. Also, in data set [2], the inhibition at 1 µM was found to be 103% and the inhibition at 0.1 µM stood at 93%. In addition, in data set [3], the “Number of the Animals Showing Remission” value was determined as 4, the “Remission Rate (%)” value is given as 52% and the “Total Score” value turned out to be 12.

With `CCn1c(=O)c2c(nc(/C=C/c3cc4c(cc3Br)OCO4)n2C)n(CC)c1=O` [Compound 96, (E)-8-(2-Bromo-4,5-methylenedioxystyryl)-1,3-diethyl-7-methylxanthine], the MLD in data set [1] is over 100 mg/kg. In data set [2], the inhibition at 1 µM came out at 101% and the inhibition at 0.1 µM turned out to be 84%.

Consider `CCn1c(=O)c2[nH]c(/C=C/c3ccccc3F)nc2n(CC)c1=O` [Compound 97, (E)-1,3-Diethyl-8-(2-fluorostyryl)xanthine], for which, in data set [1], the MLD is recorded as over 100 mg/kg. Besides, in data set [2], the inhibition at 1 µM came to 87% and the inhibition at 0.1 µM is 66%.

In data set [1], `CCn1c(=O)c2c(nc(/C=C/c3ccccc3F)n2C)n(CC)c1=O` [Compound 98, (E)-1,3-Diethyl-8-(2-fluorostyryl)-7-methylxanthine] returned an MLD of over 100 mg/kg. Besides, in data set [2], the inhibition at 1 µM came out at 95% and the inhibition at 0.1 µM was found to be 92%.

For `CCn1c(=O)c2c(nc(/C=C/c3ccc(-c4ccccc4)cc3)n2C)n(CC)c1=O` [Compound 101, (E)-1,3-Diethyl-7-methyl-8-(4-phenylstyryl)xanthine], the MLD in data set [1] is over 100 mg/kg. In data set [2], the inhibition at 1 µM came out at 76% and the inhibition at 0.1 µM came out at 36%.

As to `CCn1c(=O)c2[nH]c(/C=C/c3ccc(OC)c(F)c3)nc2n(CC)c1=O` [Compound 102, (E)-1,3-Diethyl-8-(3-fluoro-4-methoxystyryl)xanthine], the MLD in data set [1] is recorded as over 100 mg/kg. In data set [2], the inhibition at 1 µM was 94% and the inhibition at 0.1 µM was 70%.

In data set [1], `CCn1c(=O)c2c(nc(/C=C/c3ccc(F)c(Cl)c3)n2C)n(CC)c1=O` [Compound 105, (E)-8-(3-Chloro-4-fluorostyryl)-1,3-diethyl-7-methylxanthine] had an MLD of over 100 mg/kg. Further, in data set [2], the inhibition at 1 µM came to 96% and the inhibition at 0.1 µM amounted to 76%.

`CCn1c(=O)c2[nH]c(/C=C/c3cc(OC)c4c(c3)OCO4)nc2n(CC)c1=O` [Compound 106, (E)-1,3-Diethyl-8-(3-methoxy-4,5-methylenedioxystyryl)xanthine] showed an MLD in data set [1] of over 100 mg/kg. Moreover, in data set [2], the inhibition at 1 µM came to 94% and the inhibition at 0.1 µM worked out at 83%.

As to `CCn1c(=O)c2[nH]c(/C=C/c3cccc(F)c3C)nc2n(CC)c1=O` [Compound 108, (E)-1,3-Diethyl-8-(3-fluoro-2-methylstyryl)xanthine], the MLD in data set [1] is over 100 mg/kg. Also, in data set [2], the inhibition at 1 µM was determined as 94% and the inhibition at 0.1 µM stood at 87%.

`CCn1c(=O)c2c(nc(/C=C/c3ccc(OCCCCBr)cc3)n2C)n(CC)c1=O` [Compound 114, (E)-8-[4-(4-Bromobutoxy)styryl]-1,3-diethyl-7-methylxanthine] showed an MLD in data set [1] of over 100 mg/kg. In addition, in data set [2], the inhibition at 1 µM came out at 87% and the inhibition at 0.1 µM was found to be 23%.

In data set [1], `CCn1c(=O)c2c(nc(/C=C/c3ccc(OCCCCN=[N+]=[N-])cc3)n2C)n(CC)c1=O` [Compound 115, (E)-8-[4-(4-Azidobutoxy)styryl]-1,3-diethyl-7-methylxanthine] yielded an MLD of over 100 mg/kg. In addition, in data set [2], the inhibition at 1 µM was found to be 79% and the inhibition at 0.1 µM stood at 34%.

Compound `CCn1c(=O)c2c(nc(/C=C/c3cccc(Oc4ccccc4)c3)n2C)n(CC)c1=O` [Compound 120, (E)-1,3-Diethyl-7-methyl-8-(3-phenoxystyryl)xanthine] yielded an MLD in data set [1] of over 100 mg/kg. In addition, in data set [2], the inhibition at 1 µM came out at 75% and the inhibition at 0.1 µM was determined as 89%.
